In patent US7659271B2, “Pyrimidine compound having dibenzylamine structure and medicament comprising the same” (Kowa Company, Ltd., priority 2007, dated 2010):
Marks after values point to notes of the source that are not given here.

Columns and labels:
normal hamsters = assay: Measurement of blood HDL cholesterol increasing action in normal hamsters; format: in vivo, male Syrian Hamsters; conditions: for Average HDL cholesterol level ± SD: plasma 2 hours after administration on day 7, n = 5; for HDL cholesterol increasing ratio: relative to control group
From the text: N-{1-[3,5-Bis(trifluoromethyl)phenyl]ethyl}-N-({2-[(cyclopentylmethyl)(ethyl)amino]-5-(trifluoromethyl)phenyl}methyl)-5-[2-(methylsulfonyl)ethoxy]pyrimidin-2-amine (Example 3), or 4(S)-[(3,5-bis-trifluoromethylbenzyl)methoxycarbonylamino]-2(R)-ethyl-6-trifluoromethyl-3,4-dihydro-2H-quinoline-1-carboxylic acid ethyl ester (Torcetrapib) disclosed in International Patent Publication WO2000/17164 was suspended in a 5% Tween 80 solution (control vehicle), and then repeatedly administered to normal hamsters (male Syrian Hamsters) by oral administration once a day over 7 days by using a metal catheter. Two hours after the administration on day 7 of the administration, blood was collected, and plasma was obtained. Plasma lipoproteins were analyzed by automatic measurement using a HPLC system based on the postlabeling method according to the method described in J. Lipid. Res., 43, pp. 805-814. Specifically, 15 μL of a plasma sample was diluted 10 times with PBS containing 1 mM EDTA, and then injected in a volume of 80 μL into a gel filtration column (Superose 6 column, column size: 10×300 mm, GE Healthcare Bioscience) connected to a HPLC system (liquid feeding unit: Shimadzu LC-20A System, Shimadzu). Separation was performed by using PBS containing 1 mM EDTA as a running buffer at a flow rate of 0.5 mL/min and at a column temperature of 40° C. The eluate from the column was mixed with a cholesterol measurement reagent (Cholesterol E-Test Wako, Wako Pure Chemical Industries) at a flow rate of 0.25 mL/min, and the reaction was allowed in a reaction coil (0.5 mm×15 m) at 40° C. during the feeding. Cholesterols in the eluate from the reaction coil were detected at a wavelength of 600 nm. An area ratio of the HDL fraction relative to the total area of the obtained cholesterols was calculated, and HDL cholesterol level was calculated by multiplying the total cholesterol level measured beforehand using Cholesterol E Test Wako by the area ratio of the HDL fraction. Five normal hamsters grouped beforehand on the basis of the total plasma cholesterol level were used for each of the control group (control vehicle administration group) and the compound administration groups (groups administered with the compound of Example 3 at 10 mg/kg, 30 mg/kg and 100 mg/kg, and Torcetrapib at 10 mg/kg and 100 mg/kg).
The symbols * and *** used in FIG. 1 and Table 3 indicate presence of significant difference at a risk ratio lower than 5% (p<0.05) and a risk ratio lower than 0.1% (p<0.001), respectively, in a multi-group comparison test (Dunnett's multiple comparison test) performed between the control group and each compound administration group. Further, increasing ratios of HDL cholesterol level in each group relative to the control group were calculated as HDL cholesterol increasing ratios in accordance with the following equation 2, and indicated in terms of %. HDL cholesterol increasing ratio (%)=[(Average HDL cholesterol level of each compound administration group−Average HDL cholesterol level of control group)/Average HDL cholesterol level of control group]×100 (Equation 2)

CETP = target: T1, CETP (Homo sapiens, UniProt P11597); assay: Measurement of CETP inhibitory action in human plasma; format: biochemical; conditions: incubated with compound 37° C. 4 hours, Roar Biomedical CETP Activity kit, read-out: IC50 (concentration inhibiting the CETP activity by 50%)
T1 construct: The CETP activity in this plasma was measured with Cholesteryl Ester Transfer Protein Activity kit; from tissue; host or cells: human plasma
T1 sequence (P11597 18-493): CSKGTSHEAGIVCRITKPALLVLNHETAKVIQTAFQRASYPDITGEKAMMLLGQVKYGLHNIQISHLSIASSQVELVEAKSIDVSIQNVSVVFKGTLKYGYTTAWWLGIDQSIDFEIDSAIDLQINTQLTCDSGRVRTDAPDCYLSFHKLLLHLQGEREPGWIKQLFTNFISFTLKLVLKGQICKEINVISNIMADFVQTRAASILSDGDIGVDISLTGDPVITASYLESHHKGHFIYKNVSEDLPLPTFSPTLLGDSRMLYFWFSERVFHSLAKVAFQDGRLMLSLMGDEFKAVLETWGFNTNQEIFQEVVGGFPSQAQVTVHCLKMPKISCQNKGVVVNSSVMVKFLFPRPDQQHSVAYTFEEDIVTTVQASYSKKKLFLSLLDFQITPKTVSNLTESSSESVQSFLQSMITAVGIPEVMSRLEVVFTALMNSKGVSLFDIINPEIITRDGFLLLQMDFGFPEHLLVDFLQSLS
Method: A solution obtained by dissolving an exemplary compound in polyethylene glycol/N-methyl-2-pyrrolidone (vol/vol=1/1) was added to human plasma, and the mixture was incubated in an incubator at 37° C. for 4 hours. The CETP activity in this plasma was measured with Cholesteryl Ester Transfer Protein Activity kit (Roar Biomedical, catalog No.: RB-CETP). Specifically, to each well of a 96-well plate, 95 μL of a buffer (10 mM Tris, 150 mM NaCl, 2 mM EDTA, pH 7.4), 2 μL of Donor particle and 2 μL of Acceptor particle were added, 1 μL of the human plasma after the incubation was added to the mixture, and the mixture was incubated in an incubator at 37° C. for 2 hours. After completion of the incubation, fluorescence intensity (FLU) was measured with a fluorescence plate reader (excitation wavelength: 465 nm, emission wavelength: 535 nm). In accordance with the following equation 1, the CETP activity (% of control) was obtained for the compounds of the examples for two or more concentrations. CETP activity (% of control)=(Sample FLU−Blank FLU)×100/(Control FLU−Blank FLU) (Equation 1)
In the equation, the terms have the following meanings: […]
Blank FLU: Fluorescence intensity of sample not added with plasma
Control FLU: Fluorescence intensity of plasma not added with solution of compound
Sample FLU: Fluorescence intensity of plasma added with solution of compound
A value obtained by subtracting the value of the CETP activity from 100 was defined as the CETP inhibitory rate of each exemplary compound, and a concentration inhibiting the CETP activity by 50% (IC50) was calculated for each exemplary compound from the values of the CETP inhibitory rate at two or more concentrations.

[1] = 10 mg/kg oral once a day over 7 days
[2] = 30 mg/kg oral once a day over 7 days
[3] = 100 mg/kg oral once a day over 7 days

CCN(CC1CCCC1)c1ccc(C(F)(F)F)cc1CN(c1ncc(OCCS(C)(=O)=O)cn1)C(C)c1cc(C(F)(F)F)cc(C(F)(F)F)c1 (centres unmarked) [Example 3, N-{1-[3,5-bis(trifluoromethyl)phenyl]ethyl}-N-({2-[(cyclopentylmethyl)(ethyl)amino]-5-(trifluoromethyl)phenyl}methyl)-5-[2-(methylsulfonyl)ethoxy]pyrimidin-2-amine]
Average HDL cholesterol level ± SD (normal hamsters; [1]): 118.5 ± 7.6*** mg/dl | HDL cholesterol increasing ratio (normal hamsters; [1]): 37.1% | Average HDL cholesterol level ± SD (normal hamsters; [2]): 124.4 ± 8.4*** mg/dl | HDL cholesterol increasing ratio (normal hamsters; [2]): 43.9% | Average HDL cholesterol level ± SD (normal hamsters; [3]): 126.9 ± 13.2*** mg/dl | HDL cholesterol increasing ratio (normal hamsters; [3]): 46.8% | IC50 (CETP): 30 nM

CCOC(=O)N1c2ccc(C(F)(F)F)cc2[C@@H](N(Cc2cc(C(F)(F)F)cc(C(F)(F)F)c2)C(=O)OC)C[C@H]1CC [Torcetrapib, 4(S)-[(3,5-bis-trifluoromethylbenzyl)methoxycarbonylamino]-2(R)-ethyl-6-trifluoromethyl-3,4-dihydro-2H-quinoline-1-carboxylic acid ethyl ester, reference compound]
Average HDL cholesterol level ± SD (normal hamsters; [1]): 90.6 ± 7.7 mg/dL | HDL cholesterol increasing ratio (normal hamsters; [1]): 4.8% | Average HDL cholesterol level ± SD (normal hamsters; [3]): 113.0 ± 23.2* mg/dl | HDL cholesterol increasing ratio (normal hamsters; [3]): 30.7%
